“And” between values parts separate entries of the source, which are not always exact repeats. Equal values may be shown once. “Also recorded” adds a separate entry of the source. Read-outs that look alike come from different tables or passages of the source.
Experiments:
[1] = molecular target: ABCB1 (P-glycoprotein) in Colo 320 colonic adenocarcinoma cells (Homo sapiens, UniProt P08183); assay: ABCB1 inhibition, rhodamine 123 accumulation by flow cytometry; settings: for FAR (fluorescence activity ratio): rhodamine 123, FAR above 2 considered effective
ABCB1 (P-glycoprotein) in Colo 320 colonic adenocarcinoma cells, sequence (P08183 whole entry): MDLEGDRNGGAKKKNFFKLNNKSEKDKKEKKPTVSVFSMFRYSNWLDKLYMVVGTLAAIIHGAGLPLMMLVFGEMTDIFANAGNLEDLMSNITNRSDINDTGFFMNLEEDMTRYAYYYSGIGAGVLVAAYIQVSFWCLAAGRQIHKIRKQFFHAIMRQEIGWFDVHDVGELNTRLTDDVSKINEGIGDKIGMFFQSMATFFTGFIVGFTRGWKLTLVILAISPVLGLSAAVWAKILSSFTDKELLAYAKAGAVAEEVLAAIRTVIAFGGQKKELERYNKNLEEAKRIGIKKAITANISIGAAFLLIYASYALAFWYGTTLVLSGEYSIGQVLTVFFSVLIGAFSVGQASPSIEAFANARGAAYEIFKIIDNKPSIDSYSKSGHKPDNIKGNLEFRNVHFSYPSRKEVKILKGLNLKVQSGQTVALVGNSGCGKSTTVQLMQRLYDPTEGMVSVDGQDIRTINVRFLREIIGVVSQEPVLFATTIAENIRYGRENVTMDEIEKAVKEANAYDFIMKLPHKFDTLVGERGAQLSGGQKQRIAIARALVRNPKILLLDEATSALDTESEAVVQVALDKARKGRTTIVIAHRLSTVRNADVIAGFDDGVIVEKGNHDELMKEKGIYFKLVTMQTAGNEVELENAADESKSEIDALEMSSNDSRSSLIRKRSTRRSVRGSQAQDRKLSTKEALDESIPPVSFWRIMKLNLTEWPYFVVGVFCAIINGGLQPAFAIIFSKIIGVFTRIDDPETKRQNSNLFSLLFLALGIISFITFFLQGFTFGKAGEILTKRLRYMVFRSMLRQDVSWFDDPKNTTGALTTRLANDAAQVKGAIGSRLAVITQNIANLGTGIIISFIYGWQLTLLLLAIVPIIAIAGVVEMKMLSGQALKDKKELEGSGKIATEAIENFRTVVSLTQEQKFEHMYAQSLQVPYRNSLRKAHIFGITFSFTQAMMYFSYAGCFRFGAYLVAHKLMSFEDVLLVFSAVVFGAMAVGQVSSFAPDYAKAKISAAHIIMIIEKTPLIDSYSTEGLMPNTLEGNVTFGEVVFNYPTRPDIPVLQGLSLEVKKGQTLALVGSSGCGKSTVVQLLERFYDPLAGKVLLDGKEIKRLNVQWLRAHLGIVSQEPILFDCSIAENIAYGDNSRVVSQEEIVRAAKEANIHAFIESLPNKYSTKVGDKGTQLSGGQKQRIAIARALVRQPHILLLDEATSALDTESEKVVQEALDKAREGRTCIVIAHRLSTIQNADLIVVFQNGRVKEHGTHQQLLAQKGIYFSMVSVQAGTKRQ
Protocol: The inhibition of the ABCB1 multidrug efflux pump ABCB1 by the tested compounds was evaluated using flow cytometry, measuring the retention of rhodamine 123 by ABCB1 (P-glycoprotein) in Colo 320 colonic adenocarcinoma cells. Briefly, the cell number of colonic adenocarcinoma cells were adjusted to 2 × 10^6 cells/mL, re-suspended in serum-free RPMI-1640 medium in the case of colonic adenocarcinoma cells, and distributed in 0.5 mL aliquots into Eppendorf centrifuge tubes. The tested compounds were added at different concentrations (0.2 and 2 µM; from 1 and 10 mM stock solutions, respectively), and the samples were incubated for 10 min at room temperature. Tariquidar was applied as the positive control (0.2 µM final concentration), and DMSO was used as the solvent control (at 2 v/v%). Next, 10 µL (5.2 µM final concentration) of the fluorochrome rhodamine 123 (Sigma, St. Louis, MO, USA) was added to the samples and the cells were incubated for 20 min at 37 °C. After the incubation period, the cells were washed twice and re-suspended in 0.5 mL PBS for analysis. The fluorescence of the gated cell population was measured with a Partec CyFlow® flow cytometer (Partec, Münster, Germany). The percentage of the mean fluorescence intensity was calculated for the treated MDR cells as compared with the untreated cells. The results were obtained from a representative flow cytometry experiment in which at least 20,000 individual cells of the overall population were evaluated for the rhodamine 123 retained inside the cells. The fluorescence activity ratio (FAR) was calculated based on the following equation, which relates the measured fluorescence values: FAR=Colo320treated / Colo320control/Colo205treated / Colo205control
The parameters evaluated from flow cytometry experiments were: Forward Scatter Count (FSC, provides information about cell size); Side Scatter Count (SSC, proportional to cell granularity or internal complexity); FL-1 (Mean fluorescence of the cells), and Fluorescence Activity Ratio (FAR), which was calculated by the equation given above.

[2] = molecular target: T1, recombinant human P-gp membranes (Homo sapiens, UniProt P08183); assay: P-gp ATPase activity assay (Pgp-Glo); format: biochemical; settings: 25 µM; relative to basal activity
T1 construct: purchased Promega
T1 sequence (P08183 whole entry): as above
Protocol: P-glycoprotein ATPase activity was determined using the Pgp-Glo^TM Assay System (Promega, WI, USA). The assay was performed according to the manufacturer’s instructions. […] DMSO at 2% was applied as a solvent control. […] The reaction was stopped after adding 50 µL of ATP Detection Reagent. Then, the samples and controls were incubated at room temperature for 20 min. The emitted luciferase-generated luminescent signal was measured in a CLARIOstar Plus plate reader (BMG Labtech, UK) at 580 nm. The relative ATPase activity was calculated based on the ratio between the luminescence measured of the P-gp ATPase activity of each compound and the basal P-gp ATPase activity according to the following equation: Relative ATPase activity=Lumtreated−Lumuntreated/LumNa3VO4 − Lumuntreated
The effect of the tested compounds was evaluated according to the instructions of the manufacturer (Table 2).

[3] = test system: MDR Colo 320 adenocarcinoma cells; assay: Apoptosis induction (Annexin V-FITC / propidium iodide); format: cell-based, human; settings: 2 µM; for Cell Death (%) Treated Sample-Untreated Sample / Early Apoptosis (%) Treated Sample-Untreated Sample / Late Apoptosis (%) Treated Sample-Untreated Sample: 3 h induction; for Apoptosis Quotient (%): total apoptotic events relative to reference M627 (20 µM)
Protocol: The assay was carried out using an Annexin V-FITC Apoptosis Detection Kit Cat. No. PF 032 from Calbiochem (EMD Biosciences. Inc. La Jolla. CA), according to the manufacturer's instructions. […] The cell suspension was distributed into 1 mL aliquots (1 × 10^6 cells) into a 24-well microplate and incubated overnight at 37 °C, with 5% CO2. On the following day, the medium was removed and a fresh medium was added to the cells. The cells were incubated in the presence of Se-compounds for 3 h at 37 °C. […] After a 3 h induction period, the culture medium was removed, the cells were washed with PBS, and a fresh medium was added to the cells. The 24-well plates were incubated overnight at 37 °C, with 5% CO2. After the incubation, the supernatant was collected in a microfuge tube and 200 μL of 0.25 trypsin (Trypsin-Versene) was added to the wells until the cells detached from the surfaces of the wells. The cells were centrifuged at 2000× g for 2 min at room temperature, the supernatant was removed, and the cells were re-suspended in fresh serum-free medium. After this procedure, apoptosis assay was carried out according to the rapid protocol of the kit using Annexin V-FITC and propidium iodide staining. […] The data were analysed by FlowJo^TM software (BD Biosciences, San Jose, NJ, USA).

HaCaT cell line = assay: Toxicity on HaCaT cells (IC10 used as dose); format: cell-based; settings: Homo sapiens
[4] = test system: HepG2 (hepatocellular carcinoma); assay: Cytotoxicity on HepG2 cells; format: cell-based, human; settings: ratio IC50 non-tumour cells / IC50 cancer cells
B16 (skin melanoma) = assay: Cytotoxicity on B16 cells; format: cell-based, murine; settings: ratio IC50 non-tumour cells / IC50 cancer cells
[5] = concentration inhibiting 10% of the population, highest non-toxic concentration, read-out: Dose IC10

| Structure (SMILES) | FSC (Forward Scatter Count) ([1]; 0.2 µM) | SSC (Side Scatter Count) ([1]; 0.2 µM) | FAR (fluorescence activity ratio) ([1]; 0.2 µM) | FSC (Forward Scatter Count) ([1]; 2 µM) | SSC (Side Scatter Count) ([1]; 2 µM) | FAR (fluorescence activity ratio) ([1]; 2 µM) | Effect on P-gp ATPase activity [2] | Total Apoptotic Events (Early + Late, %) [3] | Cell Death (%) Treated Sample-Untreated Sample [3] | Early Apoptosis (%) Treated Sample-Untreated Sample [3] | Late Apoptosis (%) Treated Sample-Untreated Sample [3] | Apoptosis Quotient (%) [3] | IC10 (HaCaT cell line; [5]) | SI MRC-5/HepG2 [4] | SI MRC-5/B16 (B16 (skin melanoma)) | IC10 (HaCaT cell line; read-out: Dose IC10 (µM)) |
| --- | --- | --- | --- | --- | --- | --- | --- | --- | --- | --- | --- | --- | --- | --- | --- | --- |
| CC(=O)C[Se]C(=O)c1cccc(C(F)(F)F)c1 [K5, Se-(2-Oxopropyl) 3-(Trifluoromethyl)benzoselenoate] | 1982 | 1096 | 1.84 | 1949 | 1053 | 32.61 and 32.62 | milder stimulation | 32.7% | 1.35% | 1.8% | 30.9% | 66.2% | 0.25 µM | 1.3 | 2.8 |  |
| CC(=O)C[Se]C(=O)c1ccc(C(C)(C)C)cc1 [K7, Se-(2-Oxopropyl) 4-(Tert-butyl)benzoselenoate] | 1889 | 938 | 1.53 | 1920 | 1045 | 40.38 and 40.39 | inhibited the ATPase activity; also recorded: inhibitors of P-gp ATPase activity | 33.6% | 0.10% | 6.1% | 27.5% | 68.0% |  | 1.0 | 2.7 | 0.24 µM |
| CC(=O)C[Se]C(=O)c1cc(F)c(F)cc1F [K8, Se-(2-Oxopropyl) 2,4,5-Trifluorobenzoselenoate] | 1804 | 853 | 3.38 | 1990 | 1131 | 36.09 | milder inhibition of the ATPase; also recorded: inhibitors of P-gp ATPase activity | 31.6% | 0.85% | 4.9% | 26.7% | 64.0% | 0.17 µM | 0.6 | 1.8 |  |
